Test results: patent US20110318741A1, “BIOMARKERS FOR THE TREATMENT OF PSORIASIS” (priority 2010, published 2011)

Tests used:
[1] = system: proinflammatory gene products in psoriasis lesional skin; experiment: mRNA abundance of inflammatory molecules in skin biopsies by real-time RT-PCR, normalized to hARP; type: in vivo, human
Experimental: mRNA abundance for a variety of inflammatory molecules was measured by real-time RT-PCR and expression was normalized to the house-keeping gene HARP (human acidic ribosomal protein). Inflammatory markers assessed by mRNA levels included the chemokine CXCL9, beta-defensin (DEFB4), interferon-gamma, IL-10, IL-17a, IL-22, IL-8, keratin 16, MX-1, IL-12/23 p40, IL-23 p19, iNOS and TNF. These are inflammatory molecules produced by activated DC populations, Th1, Th17, Th22 T-cells and response genes to interferon (MX-1. CXCL9) or IL-17 (defensin). Keratin 16 was also measured by mRNA levels to assess the epidermal response by an alternate means.
(§1) The pharmacodynamic effects of (S)—N-(2-(1-(3-ethoxy-4-methoxyphenyl)-2-(methylsulfonyl)ethyl)-1,3-dioxoisoindolin-4-yl)acetamide were studied in skin biopsies from subjects treated with the compound in a phase 2, multi-center, open-label study evaluating the safety, tolerability, and efficacy of the compound in recalcitrant psoriasis vulgaris. Skin biopsies were taken from uninvolved and involved skin at baseline, and from involved skin after treatment with (S)—N-(2-(1-(3-ethoxy-4-methoxyphenyl)-2-(methylsulfonyl)ethyl)-1,3-dioxoisoindolin-4-yl)acetamide 20 mg BID after 4 and 12 weeks.
The expression of proinflammatory gene products known to be involved in the pathogenesis of psoriasis was measured by real-time polymerase chain reaction (RT-PCR). With regard to gene expression, there were reductions in iNOS and IL-12/IL-23 p40 mRNAs along with reductions in IL-17A and IL-22 mRNAs, indicating inhibition of the Th1, Th17, and Th22 pathways (FIG. 5). […] Normalized IL-17A mRNA levels were reduced by 49% at week 12 and normalized IL-22 mRNA levels were reduced by 100% at week 12. DEFB4, a defensin induced in keratinocytes by IL-17, was reduced by 55% in week 4 biopsies and by 82% in week 12 biopsies. IL-8, which is induced in keratinocytes by IL-17, was reduced by 76% in week 4 biopsies and by 66% in week 12 biopsies.

[2] = system: recalcitrant psoriasis vulgaris; experiment: PASI score in phase 2, multi-center, open-label study; type: in vivo, human; conditions: for PSAI Median Change (%): 20 mg BID; for subjects who had PASI-75 response: week 12
Excerpt: as §1
Additionally, the reductions observed from biopsies were evaluated separately in responders and non-responders.
To identify changes in cellular infiltration or gene expression that correlate with changes in PASI score, a correlation analysis was performed using the Spearman rank-order correlation method. […] A strong trend was observed between the decrease in CD11c+myeloid DC in the epidermis the decrease in PASI score at week 4 (p=0.052).

`CCOc1cc([C@@H](CS(C)(=O)=O)N2C(=O)c3cccc(NC(C)=O)c3C2=O)ccc1OC` [(S)—N-(2-(1-(3-ethoxy-4-methoxyphenyl)-2-(methylsulfonyl)ethyl)-1,3-dioxoisoindolin-4-yl)acetamide] was tested. Which “reduction of normalized IL-17A mRNA levels” value ([1]; Week 12, 20 mg b.i.d.) did it give?
The value was 49%.

What about the “reduction of normalized IL-22 mRNA levels” value ([1]; Week 12, 20 mg b.i.d.) of the same compound?
Its value is 100%.

And the “reduction of normalized iNOS mRNA expression” value ([1]; Week 12, 20 mg b.i.d.)?
The value was 100%.

What about the “reduction in IFN-γ gene expression in the skin” value ([1]; week 4, the three subjects who attained a PASI-75 or better at week 12) of the same compound?
Its value is 100%.

And the “IL-12/23 p40 mRNA levels” value ([1]; week 4 and week 12 biopsies, 20 mg b.i.d.)?
Its value is “significant reductions”.

And the “reduction of normalized expression of IL-8” value ([1]; week 4 biopsies, 20 mg b.i.d.)?
The value was 76%.

What about the “inhibition of gene expression, responders vs non-responders” value ([1]; week 12, 20 mg BID) of the same compound?
Its value is “greater among responders”.

What about the “reduction of normalized expression of IL-8” value ([1]; week 12 biopsies, 20 mg b.i.d.) of the same compound?
The value was 66%.

And the “PSAI Median Change (%)” value ([2]; Week 4, subjects also with CD3 in Dermis values, No. 19)?
Its value is −29.0%.

What about the “PSAI Median Change (%)” value ([2]; Week 4, subjects also with CD3 in Epidermis values, No. 19) of the same compound?
Its value is −29.0%.

And the “PSAI Median Change (%)” value ([2]; Week 4, subjects also with CD11c in Dermis values, No. 20)?
The value was −32.0%.

What about the “PSAI Median Change (%)” value ([2]; Week 4, subjects also with CD11c in Epidermis values, No. 18) of the same compound?
The value was −26.5%.

And the “PSAI Median Change (%)” value ([2]; Week 4, subjects also with CD56 in Dermis values, No. 20)?
Its value is −32.0%.

What about the “PSAI Median Change (%)” value ([2]; Week 4, subjects also with CD56 in Epidermis values, No. 16) of the same compound?
Its value is −15.0%.

And the “PSAI Median Change (%)” value ([2]; Week 4, subjects also with CD83/hARP values, No. 15)?
The value was −18.0%.

What about the “PSAI Median Change (%)” value ([2]; Week 4, subjects also with CXCL9/hARP values, No. 17) of the same compound?
Its value is −29.0%.

What about the “PSAI Median Change (%)” value ([2]; Week 4, subjects also with DEFB4/hARP values, No. 16) of the same compound?
Its value is −23.5%.

What about the “PSAI Median Change (%)” value ([2]; Week 4, subjects also with IFNγ/hARP values, No. 15) of the same compound?
The value was −35.0%.

And the “PSAI Median Change (%)” value ([2]; Week 4, subjects also with IL-2/hARP values, No. 12)?
The value was −32.0%.

And the “PSAI Median Change (%)” value ([2]; Week 4, subjects also with IL-8/hARP values, No. 18)?
The value was −32.0%.

And the “PSAI Median Change (%)” value ([2]; Week 4, subjects also with IL-10/hARP values, No. 18)?
Its value is −32.0%.

What about the “PSAI Median Change (%)” value ([2]; Week 4, subjects also with IL-17A/hARP values, No. 16) of the same compound?
The value was −23.5%.

And the “PSAI Median Change (%)” value ([2]; Week 4, subjects also with IL-22/hARP values, No. 10)?
The value was −18.5%.

What about the “PSAI Median Change (%)” value ([2]; Week 4, subjects also with K16/hARP values, No. 18) of the same compound?
Its value is −32.0%.

And the “PSAI Median Change (%)” value ([2]; Week 4, subjects also with Langerin in Dermis values, No. 17)?
Its value is −18.0%.

And the “PSAI Median Change (%)” value ([2]; Week 4, subjects also with Langerin in Epidermis values, No. 20)?
Its value is −32.0%.

What about the “PSAI Median Change (%)” value ([2]; Week 4, subjects also with MX1/hARP values, No. 17) of the same compound?
The value was −29.0%.

And the “PSAI Median Change (%)” value ([2]; Week 4, subjects also with TNFα/hARP values, No. 17)?
The value was −29.0%.

And the “PSAI Median Change (%)” value ([2]; Week 4, subjects also with Thickness values, No. 19)?
The value was −29.0%.

What about the “PSAI Median Change (%)” value ([2]; Week 4, subjects also with iNOS/hARP values, No. 15) of the same compound?
Its value is −35.0%.

And the “PSAI Median Change (%)” value ([2]; Week 4, subjects also with p19/hARP values, No. 18)?
Its value is −32.0%.

And the “PSAI Median Change (%)” value ([2]; Week 4, subjects also with p40/hARP values, No. 13)?
Its value is −29.0%.

And the “PSAI Median Change (%)” value ([2]; Week 12, subjects also with CD3 in Dermis values, No. 15)?
The value was −48.0%.

And the “PSAI Median Change (%)” value ([2]; Week 12, subjects also with CD3 in Epidermis values, No. 15)?
The value was −48.0%.

And the “PSAI Median Change (%)” value ([2]; Week 12, subjects also with CD11c in Dermis values, No. 14)?
The value was −52.5%.

And the “PSAI Median Change (%)” value ([2]; Week 12, subjects also with CD11c in Epidermis values, No. 13)?
The value was −45.0%.

And the “PSAI Median Change (%)” value ([2]; Week 12, subjects also with CD56 in Dermis values, No. 15)?
Its value is −48.0%.

And the “PSAI Median Change (%)” value ([2]; Week 12, subjects also with CD56 in Epidermis values, No. 12)?
The value was −42.5%.

And the “PSAI Median Change (%)” value ([2]; Week 12, subjects also with CD83/hARP values, No. 11)?
Its value is −48.0%.

And the “PSAI Median Change (%)” value ([2]; Week 12, subjects also with CXCL9/hARP values, No. 11)?
Its value is −48.0%.

And the “PSAI Median Change (%)” value ([2]; Week 12, subjects also with DEFB4/hARP values, No. 10)?
The value was −46.5%.

What about the “PSAI Median Change (%)” value ([2]; Week 12, subjects also with IFNγ/hARP values, No. 12) of the same compound?
Its value is −54.0%.

And the “PSAI Median Change (%)” value ([2]; Week 12, subjects also with IL-2/hARP values, No. 10)?
Its value is −54.0%.

What about the “PSAI Median Change (%)” value ([2]; Week 12, subjects also with IL-8/hARP values, No. 14) of the same compound?
Its value is −54.0%.

And the “PSAI Median Change (%)” value ([2]; Week 12, subjects also with IL-10/hARP values, No. 14)?
Its value is −54.0%.

What about the “PSAI Median Change (%)” value ([2]; Week 12, subjects also with IL-17A/hARP values, No. 10) of the same compound?
The value was −46.5%.

What about the “PSAI Median Change (%)” value ([2]; Week 12, subjects also with IL-22/hARP values, No. 6) of the same compound?
Its value is −46.5%.

And the “PSAI Median Change (%)” value ([2]; Week 12, subjects also with K16/hARP values, No. 14)?
Its value is −54.0%.

And the “PSAI Median Change (%)” value ([2]; Week 12, subjects also with Langerin in Dermis values, No. 12)?
The value was −54.0%.

What about the “PSAI Median Change (%)” value ([2]; Week 12, subjects also with Langerin in Epidermis values, No. 15) of the same compound?
Its value is −48.0%.

And the “PSAI Median Change (%)” value ([2]; Week 12, subjects also with MX1/hARP values, No. 11)?
Its value is −48.0%.

And the “PSAI Median Change (%)” value ([2]; Week 12, subjects also with TNFα/hARP values, No. 13)?
The value was −60.0%.

And the “PSAI Median Change (%)” value ([2]; Week 12, subjects also with Thickness values, No. 14)?
Its value is −46.5%.

What about the “PSAI Median Change (%)” value ([2]; Week 12, subjects also with iNOS/hARP values, No. 11) of the same compound?
The value was −48.0%.

What about the “PSAI Median Change (%)” value ([2]; Week 12, subjects also with p19/hARP values, No. 14) of the same compound?
Its value is −54.0%.

And the “PSAI Median Change (%)” value ([2]; Week 12, subjects also with p40/hARP values, No. 7)?
Its value is −48.0%.

And the “subjects who had PASI-75 response” value ([2]; IFNγ analysis set (eight subjects non PASI-75))?
Its value is “four”.

And the “subjects who had PASI-75 response” value ([2]; Langerin in dermis analysis set (ten subjects non PASI-75))?
The value was “four”.
